Experimental data: patent publication US20260083743A1, “NUCLEOSIDE DERIVATIVE FOR PREVENTING AND TREATING INFLAMMATION AND APPLICATION THEREOF” (WEST CHINA HOSPITAL OF SICHUAN UNIVERSITY, priority 2019, published 2026)

How the values were obtained:
[1] = system: sodium taurocholate-induced pancreatitis model; test: Improvement effect on pancreatitis, sodium taurocholate-induced model in mice; type: in vivo, Blab/c mice; parameters: Pancreatic histopathological injury score: scale not given here; details: 17.5 mg/kg caudal vein 1 h, 3 h and 6 h after model construction; after 24 hours; n = 10
Text: In this example, the improvement effect of compounds 1 19 prepared in example 1 on […] measured. (1) Animals: Adult and Healthy Male Blab/c Mice, 25 30 g. […] A model was made with sodium taurocholate. […] After anesthesia, the surgical site was sterilized with an alcohol cotton ball. The sterile gauze was placed on the surgical site. A laparotomy was made at the width of two fingers under the xiphoid process. After seeing the liver, an incision was made, the cotton swab soaked in normal saline was stretched into the enterocoelia, the duodenum was sought on the back of the liver, turned out and placed on the sterile gauze, the pancreaticobiliary duct and duodenal papilla were sought, and the needle of 1 mL syringe was used to pierce a hole on the along the direction of the nipple, a 24 G indwelling needle tube was inserted into the pancreatic duct along the nipple, and the common bile duct below the liver was closed with an arterial vascular clip, with a dose of 0.1 mL/100 g and 0.1 mL/min inject sodium taurocholate with a concentration of 3.8% at a flow rate. During this process, pay attention to adding saline to the exposed pancreas and duodenum to keep it moist. After the injection, the tube was slowly taken out and the bile duct was continued to be closed. The main tube was removed from the vascular artery clip 3 minutes later, the duodenum was also accommodated, and the abdominal cavity was sutured in double layers. The blank control group was injected with equal volume of isotonic saline. […] The blank control group and the model control group were given equal volume of isotonic saline. After 24 hours, pancreatic tissue and blood samples were taken, and the pancreatic histopathological injury score and the level of pancreatic amylase in serum were evaluated.

arthritis model = test: Improvement effect on arthritis, sodium iodoacetate knee joint model in SD rats; type: in vivo; parameters: Pathological tissue score (joint): scale not given here; details: gavage every day 100 mg/kg/d; 4th week after operation; n = 10
Description: In this example, the improvement effect of compounds 1˜19 prepared in example 1 on arthritic was measured. (1) Animals: SD rats, four rates in one cage, were fed under the conditions of constant temperature (25±2° C.) and illumination control (12 h day/night circulation). The animals were fed with standard feed, and fed for at least 7 days to adapt environment before the experiment. […] (3) SD rats were fasted for 12 hours before operation, and weighed and recorded prior to operation. The blank control group was not treated any more. […] After anesthesia, they were fixed in the supine position. 0.1 ml of 1 g/L sodium iodoacetate solution was injected into the knee joint. From the fifth day, the animals were driven to run for 30 minutes every day, and they were allowed to move freely in the cage the rest of the time. After modeling, indomethacin and compounds 1˜19 were given by gavage every day at the dose of 100 mg/kg/d. The blank control group and the model control group were given equal volume of isotonic saline. At the 4th week after operation, the articular fluid of rats in each group was extracted to measure the content of MMP-13. The rats were killed, and the subchondral bone plate of the inner condyle of the tibia of the right knee was cut and processed into specimens, and pathological scores were made.

mouse hepatitis model = test: Improvement effect on hepatitis, concanavalin A (ConA) mouse hepatitis model; type: in vivo, Blab/c mice; details: gavage 50 mg/kg, n = 10
Description: In this example, the improvement effect of compounds 1 19 prepared in example 1 on […] measured. (1) Animals: Adult and Healthy Male Blab/c Mice, 25 30 g. […] The blank control group was injected with equal volume of isotonic saline. After modeling, indomethacin and compounds 1 19 were given by gavage every day at the dose of 50 mg/kg. The blank control group and the model control group were given equal volume of isotonic saline. Eyeball blood and liver tissue were taken at 6 h, 12 h, 24 h and 48 h after administration. The levels of serum alanine aminotransferase (ALT) and aspartate aminotransferase (AST) were measured.

Compound | Amylopsin (pancreatic amylase level in serum) [1] [KU/L] | Pancreatic histopathological injury score [1] | MMP-13 content in joint fluid (arthritis model) [mg/L] | Pathological tissue score (joint) (arthritis model) | Aspartate aminotransferase (AST) (mouse hepatitis model; 6 h after administration) [U/L] | Serum alanine aminotransferase (ALT) (mouse hepatitis model; 6 h after administration) [U/L] | Aspartate aminotransferase (AST) (mouse hepatitis model; 12 h after administration) [U/L] | Serum alanine aminotransferase (ALT) (mouse hepatitis model; 12 h after administration) [U/L] | Aspartate aminotransferase (AST) (mouse hepatitis model; 24 h after administration) [U/L] | Serum alanine aminotransferase (ALT) (mouse hepatitis model; 24 h after administration) [U/L] | Aspartate aminotransferase (AST) (mouse hepatitis model; 48 h after administration) [U/L] | Serum alanine aminotransferase (ALT) (mouse hepatitis model; 48 h after administration) [U/L]
CCC(=O)CCn1c(=O)c2c(ncn2C)n(C)c1=O [Compound 16, 1-(2-propionylethyl)-3,7-dimethylxanthine] | 5 ± 2 | 1.8 ± 0.3 | 93 ± 9 | 0.4 ± 0.3 | 59 ± 7 | 61 ± 8 | 93 ± 11 | 101 ± 16 | 121 ± 12 | 132 ± 12 | 103 ± 9 | 104 ± 13
CCn1c(=O)c2c(ncn2C)n(C)c1=O [Compound 1, 1-ethyl-3-7-dimethylxanthine] | 3 ± 1 | 0.4 ± 0.3 | 86 ± 4 | 0.2 ± 0.3 | 43 ± 7 | 56 ± 8 | 82 ± 8 | 97 ± 8 | 104 ± 8 | 132 ± 12 | 89 ± 9 | 100 ± 12
CC(C)C(=O)OCCn1c(=O)c2c(ncn2C)n(C)c1=O [Compound 10, 1-(isopropyl acid-2-ethyl)-3,7-dimethylxanthine] | 7 ± 5 | 0.6 ± 0.4 | 91 ± 8 | 0.7 ± 0.4 | 87 ± 9 | 83 ± 8 | 167 ± 19 | 132 ± 13 | 189 ± 15 | 186 ± 19 | 176 ± 17 | 154 ± 17
CCC(=O)OCCn1c(=O)c2c(ncn2C)n(C)c1=O [Compound 9, 1-(propionic acid-2-ethyl)-3,7-dimethylxanthine] | 5 ± 3 | 0.5 ± 0.4 | 97 ± 7 | 0.6 ± 0.2 | 78 ± 7 | 78 ± 8 | 123 ± 8 | 110 ± 13 | 142 ± 13 | 175 ± 18 | 131 ± 14 | 123 ± 12
Cn1c(=O)c2c(ncn2C)n(C)c1=O [Caffeine, caffeine, reference compound] | 16 ± 2 | 2.6 ± 0.4 | 59 ± 8 | 2.6 ± 0.4 | 260 ± 31 | 590 ± 54 | 860 ± 91 | 1456 ± 132 | – | 2632 ± 321 | 943 ± 91 | 1432 ± 152
CNCCn1c(=O)c2c(ncn2C)n(C)c1=O [Compound 11, 1-(2-methylaminoethyl)-3,7-dimethylxanthine] | 5 ± 3 | 0.5 ± 0.2 | 86 ± 5 | 0.3 ± 0.3 | 48 ± 7 | 54 ± 6 | 89 ± 8 | 92 ± 9 | 112 ± 12 | 142 ± 14 | 95 ± 9 | 110 ± 13
